This is an account of results in patent US20250332173A1, “COMPOUNDS AND METHODS FOR MODULATING NUCLEIC ACID SPLICING” (REMIX THERAPEUTICS INC., priority 2021, published 2025).

Assay [1] deals with Target C. As to the kind of experiment: RT-qPCR splicing assay panel, Target C canonical junction (CJ) mRNA. It counts as cell-based, human. The settings on record: Homo sapiens; Table 5 panel; canonical junction qPCR; compound concentration having 50% response in CJ decrease; read-out: Target C IC50 (decrease in CJ mRNA levels). In a few lines: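 A673 cells (DMEM/10% FBS) or K562 cells (IMDM/10% FBS) were treated 24 h at 37° C. with 11-point 3-fold dilutions (top 10 uM, ≤0.25% DMSO). Canonical-junction mRNA was quantified in lysates by RT-qPCR, normalized to GAPDH, GUSB or PPIA.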
(In qPCR the cycle at which signal appears reflects the starting amount.)

Assay [2] concerns MYB mRNA. As to the kind of experiment: RT-qPCR splicing assay, MYB canonical junction (CJ) and alternative junction (AJ) mRNA. It counts as cell-based, human. Conditions: Homo sapiens; for AC50: increase in MYB alternative junction (AJ) mRNA, read-out: MYB AJ AC50. In a few lines: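 Read-out is one-step RT-qPCR on cell lysates detecting the exon-exon junction of each isoform, normalized to a housekeeping gene (PPIA in A673, GAPDH or GUSB in K562).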

Where [3] appears, read: Table 5 panel, canonical junction qPCR, compound concentration having 50% response in CJ decrease, read-out: MYB IC50 (decrease in CJ mRNA levels).
[4] abbreviates: decrease in MYB canonical junction (CJ) mRNA, RT-qPCR, read-out: MYB CJ IC50.

As a reminder, the IC50 is the point on the concentration scale where inhibition reaches its midpoint. As usually defined, the AC50 is the concentration giving half of the maximal activity seen.

Read-outs that look alike come from different tables or passages of the source.

As to `COc1cc(-c2cc(F)c3c(=O)n(C4CCNCC4)cnc3c2)cnn1` [Compound 320], the concentration for half-maximal inhibition (IC50) in assay [1], in assay [2] (setting [3]) and in assay [2] (setting [4]) was above 10000 nM each time. For the same compound, the AC50 in assay [2] (RT-qPCR) is above 10000 nM.

For the compound `Cc1cn2nc(-c3cc(F)c4c(=O)n(C5CCNCC5)ccc4c3)cc(C)c2n1` [Compound 322], the IC50 in assay [1], in assay [2] (setting [3]) and in assay [2] (setting [4]) was below 100 nM throughout. Also, the AC50 in assay [2] (RT-qPCR) was below 100 nM.

Consider `Cc1cn2cc(-c3cc(F)c4c(=O)n([C@H]5CCNC[C@H]5F)cnc4c3)cc(F)c2n1` [Compound 338], for which the half-maximal inhibitory concentration (IC50) in assay [1] was 1000 to 10000 nM; in assay [2] (setting [3]), below 100 nM; in assay [2] (setting [4]), below 100 nM. For the same compound, the AC50 in assay [2] (RT-qPCR) was below 100 nM.

Turning to `Cc1cn2cc(-c3cc(F)c4c(=O)n(C5CCNCC5(F)F)cnc4c3)cc(F)c2n1` (stereo not drawn) [Compound 339], the IC50 in assay [1] was above 10000 nM; in assay [2] (setting [3]) it was 1000 to 10000 nM; in assay [2] (setting [4]) it was 1000 to 10000 nM. In assay [2] (RT-qPCR), the half-maximal activity concentration (AC50) fell in the range of 1000 to 10000 nM.

On to `Cc1cn2cc(-c3cc(F)c4c(=O)n(N5CCNCC5)cnc4c3)cc(F)c2n1` [Compound 340, 5-fluoro-7-{8-fluoro-2-methylimidazo[1,2-a]pyridin-6-yl}-3-(piperazin-1-yl)quinazolin-4-one], for which the half-inhibitory concentration (IC50) in assay [1] was 100 to 1000 nM; in assay [2] (setting [3]), below 100 nM; in assay [2] (setting [4]) it was below 100 nM. Moreover, the concentration at half-maximal activity (AC50) in assay [2] (RT-qPCR) was below 100 nM.

In the case of `Cc1cn2cc(-c3cc(F)c4c(=O)n(C5=CCNCC5)cnc4c3)cc(F)c2n1` [Compound 342], the half-inhibitory concentration (IC50) is 100 to 1000 nM in assay [1], below 100 nM in assay [2] (setting [3]) and below 100 nM in assay [2] (setting [4]). In addition, the concentration at half-maximal activity (AC50) in assay [2] (RT-qPCR) is below 100 nM.

For `Cc1cn2nc(-c3cc(N(C)C)c4c(=O)n(C5CCNC6(CC6)C5)cnc4c3)cc(C)c2n1` (stereo not drawn) [Compound 345], the IC50 in assay [1], in assay [2] (setting [3]) and in assay [2] (setting [4]) was below 100 nM throughout. Besides, the AC50 in assay [2] (RT-qPCR) was below 100 nM.

For the compound `Cc1cn2cc(-c3cc(F)c4c(=O)n([C@H]5CCN[C@H](C)C5)cnc4c3)cc(F)c2n1` [Compound 346, trans-5-fluoro-7-(8-fluoro-2-methylimidazo[1,2-a]pyridin-6-yl)-3-(2-methylpiperidin-4-yl)quina-zolin-4(3H)-one], the IC50 was 100 to 1000 nM in assay [1], below 100 nM in assay [2] (setting [3]) and below 100 nM in assay [2] (setting [4]). For the same compound, the half-maximal activity concentration (AC50) in assay [2] (RT-qPCR) was below 100 nM.

`Cc1cn2cc(-c3cc(F)c4c(=O)n([C@H]5CCNC[C@@H]5O)cnc4c3)cc(F)c2n1` [Compound 347, 5-fluoro-7-{8-fluoro-2-methylimidazo[1,2-a]pyridin-6-yl}-3-[(3S,4S)-3-hydroxypiperidin-4-yl]quinazolin-4-one]: the IC50 in assay [1] was 1000 to 10000 nM; in assay [2] (setting [3]), 100 to 1000 nM; in assay [2] (setting [4]), 1000 to 10000 nM. In addition, the concentration at half-maximal activity (AC50) in assay [2] (RT-qPCR) fell in the range of 1000 to 10000 nM.

`Cc1cn2cc(-c3cc(F)c4c(=O)n([C@H]5CNCC[C@@H]5O)cnc4c3)cc(F)c2n1` [Compound 348, 5-fluoro-7-{8-fluoro-2-methylimidazo[1,2-a]pyridin-6-yl}-3-[(3S,4S)-4-hydroxypiperidin-3-yl]quinazolin-4-one]: the 50% inhibitory concentration (IC50) in assay [1], in assay [2] (setting [3]) and in assay [2] (setting [4]) was above 10000 nM in each case. The half-maximal activity concentration (AC50) in assay [2] (RT-qPCR) is above 10000 nM.

As for `Cc1cn2nc(-c3ccc4c(=O)n([C@H]5CCNC6(CC6)C5)cnc4c3)cc(C)c2n1` [Compound 349, 3-[(7S)-4-azaspiro[2.5]octan-7-yl]-7-{2,8-dimethylimidazo[1,2-b]pyridazin-6-yl}quinazolin-4-one], the concentration for half-maximal inhibition (IC50) in assay [1] was in the range of 1000 to 10000 nM; in assay [2] (setting [3]) it was 100 to 1000 nM; in assay [2] (setting [4]), 100 to 1000 nM. The AC50 in assay [2] (RT-qPCR) was in the range of 100 to 1000 nM.

For `Cc1cn2nc(-c3ccc4c(=O)n([C@@H]5CCNC6(CC6)C5)cnc4c3)cc(C)c2n1` [Compound 350, 3-[(7R)-4-azaspiro[2.5]octan-7-yl]-7-{2,8-dimethylimidazo[1,2-b]pyridazin-6-yl}quinazolin-4-one], the IC50 in assay [1] is 100 to 1000 nM; in assay [2] (setting [3]), below 100 nM; in assay [2] (setting [4]), below 100 nM. The AC50 in assay [2] (RT-qPCR) is below 100 nM.

As for `Cc1cn2nc(-c3cc(F)c4c(=O)n(C5CCNC6(CC6)C5)cnc4c3)cc(C)c2n1` (stereo not drawn) [Compound 351], the half-maximal inhibitory concentration (IC50) in assay [1], in assay [2] (setting [3]) and in assay [2] (setting [4]) was below 100 nM throughout. Further, the AC50 in assay [2] (RT-qPCR) was below 100 nM.

Consider `Cc1cn2cc(-c3cc(F)c4c(=O)n(C5CNCCC5=O)cnc4c3)cc(F)c2n1` (stereo not drawn) [Compound 352, 5-fluoro-7-{8-fluoro-2-methylimidazo[1,2-a]pyridin-6-yl}-3-(4-oxopiperidin-3-yl)quinazolin-4-one], for which the IC50 in assay [1], in assay [2] (setting [3]) and in assay [2] (setting [4]) was above 10000 nM each time. In addition, the concentration at half-maximal activity (AC50) in assay [2] (RT-qPCR) was above 10000 nM.

Consider `Cc1cn2cc(-c3cc(F)c4c(=O)n(C5CCCNCC5)cnc4c3)cc(F)c2n1` (stereo not drawn) [Compound 353, 3-(azepan-4-yl)-5-fluoro-7-{8-fluoro-2-methylimidazo[1,2-a]pyridin-6-yl}quinazolin-4-one], for which the 50% inhibitory concentration (IC50) in assay [1] fell in the range of 1000 to 10000 nM; in assay [2] (setting [3]), 100 to 1000 nM; in assay [2] (setting [4]), 100 to 1000 nM. In assay [2] (RT-qPCR), the AC50 is 100 to 1000 nM.

Turning to `Cc1ncc(-c2ccc3c(=O)n(C4CCNCC4)cnc3c2)cn1` [Compound 354, 7-(2-methylpyrimidin-5-yl)-3-(piperidin-4-yl)quinazolin-4(3H)-one], the concentration for half-maximal inhibition (IC50) in assay [1], in assay [2] (setting [3]) and in assay [2] (setting [4]) was 1000 to 10000 nM in each case. Besides, the AC50 in assay [2] (RT-qPCR) lay in the range of 1000 to 10000 nM.

Consider `Cc1cn2nc(-c3cc(C)c4c(=O)n(C5CCNCC5)cnc4c3)cc(C)c2n1` [Compound 355], for which the IC50 in assay [1] is 100 to 1000 nM; in assay [2] (setting [3]), below 100 nM; in assay [2] (setting [4]), below 100 nM. Moreover, in assay [2] (RT-qPCR), the AC50 was below 100 nM.

`Cc1cn2nc(-c3cc(F)c4c(=O)n([C@@H]5CCNC6(CC6)C5)cnc4c3)cc(C)c2n1` [Compound 356]: the IC50 in assay [1] was 100 to 1000 nM; in assay [2] (setting [3]), 100 to 1000 nM; in assay [2] (setting [4]), below 100 nM. Moreover, the AC50 in assay [2] (RT-qPCR) was in the range of 100 to 1000 nM.

As to `CNc1cc(-c2cc(F)c3nc(C)cn3c2)cc2ncn(C3CCNCC3)c(=O)c12` [Compound 358, 7-{8-fluoro-2-methylimidazo[1,2-a]pyridine-6-yl}-5-(methylamino)-3-(piperidin-4-yl)quinazolin-4-one], the IC50 in assay [1] was above 10000 nM; in assay [2] (setting [3]) it was 1000 to 10000 nM; in assay [2] (setting [4]), 1000 to 10000 nM. Moreover, the half-maximal activity concentration (AC50) in assay [2] (RT-qPCR) was 1000 to 10000 nM.

`CNc1cc(-c2cc(C)c3nc(C)cn3n2)cc2ncn(C3CCNCC3)c(=O)c12` [Compound 359, 7-{2,8-dimethylimidazo[1,2-b]pyridazin-6-yl}-5-(methylamino)-3-(piperidin-4-yl)quinazolin-4-one]: the IC50 was above 10000 nM in assay [1], below 100 nM in assay [2] (setting [3]) and 1000 to 10000 nM in assay [2] (setting [4]). Besides, the concentration at half-maximal activity (AC50) in assay [2] (RT-qPCR) is below 100 nM.

Regarding `CNc1cc(-c2cn3cc(C)nc3c(C)n2)cc2ncn(C3CCNCC3)c(=O)c12` [Compound 360, 7-{2,8-dimethylimidazo[1,2-a]pyrazine-6-yl}-5-(methylamino)-3-(piperidin-4-yl)quinazolin-4-one], the half-maximal inhibitory concentration (IC50) is above 10000 nM in assay [1], 1000 to 10000 nM in assay [2] (setting [3]) and above 10000 nM in assay [2] (setting [4]). In assay [2] (RT-qPCR), the AC50 lay in the range of 1000 to 10000 nM.

In the case of `Cc1cc(-c2cc(F)c3c(=O)n(C4CCNC5(CC5)C4)cnc3c2)nc2cn(C)nc12` (stereo not drawn) [Compound 361, 3-{4-azaspiro[2.5]octan-7-yl}-7-{2,7-dimethylpyrazolo[4,3-b]pyridin-5-yl}-5-fluoroquinazolin-4-one], the half-maximal inhibitory concentration (IC50) in assay [1] was 100 to 1000 nM; in assay [2] (setting [3]), below 100 nM; in assay [2] (setting [4]), below 100 nM. In addition, the half-maximal activity concentration (AC50) in assay [2] (RT-qPCR) was below 100 nM.

With `Cc1cn2nc(-c3cc(O)c4c(=O)n(C5CCNC5)cnc4c3)cc(C)c2n1` (stereo not drawn) [Compound 362, 7-{2,8-dimethylimidazo[1,2-b]pyridazin-6-yl}-5-hydroxy-3-(pyrrolidin-3-yl)quinazolin-4-one], the IC50 in assay [1] is above 10000 nM; in assay [2] (setting [3]) it was 1000 to 10000 nM; in assay [2] (setting [4]), 1000 to 10000 nM. Besides, in assay [2] (RT-qPCR), the concentration at half-maximal activity (AC50) lay in the range of 1000 to 10000 nM.

`CNc1cc(-c2cc(C#N)c3nc(C)cn3c2)cc2ncn(C3CCNCC3)c(=O)c12` [Compound 363, 2-methyl-6-[5-(methylamino)-4-oxo-3-(piperidin-4-yl)quinazolin-7-yl]imidazo[1,2-a]pyridine-8-carbonitrile]: the half-maximal inhibitory concentration (IC50) in assay [1], in assay [2] (setting [3]) and in assay [2] (setting [4]) was above 10000 nM throughout. Also, in assay [2] (RT-qPCR), the concentration at half-maximal activity (AC50) was above 10000 nM.
